Measured values taken from patent US20240092802A1, “MU-OPIOID RECEPTOR AGONISTS AND USES THEREFOR” (Kures, Inc., priority 2020, published 2024).
“And” between values parts separate entries of the source, which are not always exact repeats. Equal values may be shown once.

What was measured:
Human MOR = Human MOR (Homo sapiens (Human), UniProt P35372); assay: BRET G protein activation assay, human MOR in transfected HEK-293T cells; type: cell-based; settings: BRET G protein activation, HEK-293T; mean ± SEM; read-out: EC50 Human MOR
Human MOR, sequence (P35372 whole entry, the tested form may be a part): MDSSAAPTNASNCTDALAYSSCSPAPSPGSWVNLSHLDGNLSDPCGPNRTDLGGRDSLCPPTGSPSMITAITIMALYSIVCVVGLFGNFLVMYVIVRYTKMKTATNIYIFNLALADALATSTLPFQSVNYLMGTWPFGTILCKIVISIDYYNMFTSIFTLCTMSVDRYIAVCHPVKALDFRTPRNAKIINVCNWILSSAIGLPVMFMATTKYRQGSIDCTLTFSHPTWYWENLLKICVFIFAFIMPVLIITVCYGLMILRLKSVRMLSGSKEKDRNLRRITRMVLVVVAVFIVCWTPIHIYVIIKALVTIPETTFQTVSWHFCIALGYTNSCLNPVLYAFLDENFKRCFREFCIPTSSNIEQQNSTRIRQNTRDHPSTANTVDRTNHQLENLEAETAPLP
Text: (§1) Transfection. Human or mouse MOR cDNA was transfected alongside GαoB with RLuc8 inserted at position 91 (GαoB-RLuc8), Gβ1 (β1), and Gγ2 fused to the full-length mVenus at its N terminus (mVenus γ2) into HEK-293T cells (5×10^6 cells/plate) in 10-cm dishes using PEI (Polysciences Inc.; Warrington, PA) in a 1:1 ratio diluted in Opti-MEM (Life Technologies Corp.; Grand Island, NY) to assay for G protein activation as described previously (Rives, M.-L. et al. J. Biol. Chem. 2012, 287, 27050-4; Negri, A.; Rives, M.-L.; Caspers, M. J. et al. J. Chem. Inf. Model. 2013, 53, 521-526). Cells were maintained in the Dulbecco's Modified Eagle Medium (high glucose #11965; Life Technologies) supplemented with 10% FBS (Premium Select, Atlanta Biologicals; Atlanta, GA) and 100 U/mL penicillin and 100 μg/mL streptomycin (#15140, Life Technologies). After 24 hours the media was changed, and the experiment was performed 24 hours later (48 hours after transfection).
(§2) BRET. Transfected cells were dissociated and resuspended in phosphate-buffered saline (PBS). Approximately 200,000 cells/well were added to a black-framed, white well 96-well plate (#60050; Perkin Elmer; Waltham, MA). The microplate was centrifuged and the cells were resuspended in PBS. Then 5 μM of the luciferase substrate coelenterazine H was added to each well for 5 minutes. Following coelenterazine H addition, ligands were added and the BRET signal was measured at 5 minutes on a PHERAstar FS plate reader. Quantification of the BRET signal required calculating the ratio of the light emitted by the energy acceptor, mVenus (510-540 nm), over the light emitted by the energy donor, RLuc8 (485 nm). […] Dose response curves were fit using three-parameter logistics equation in GraphPad Prism 6.

Mouse MOR = Mouse MOR (Mus musculus (Mouse), UniProt P42866); assay: BRET G protein activation assay, mouse MOR in transfected HEK-293T cells; type: cell-based; settings: mean ± SEM
Mouse MOR, sequence (P42866 whole entry, looked up): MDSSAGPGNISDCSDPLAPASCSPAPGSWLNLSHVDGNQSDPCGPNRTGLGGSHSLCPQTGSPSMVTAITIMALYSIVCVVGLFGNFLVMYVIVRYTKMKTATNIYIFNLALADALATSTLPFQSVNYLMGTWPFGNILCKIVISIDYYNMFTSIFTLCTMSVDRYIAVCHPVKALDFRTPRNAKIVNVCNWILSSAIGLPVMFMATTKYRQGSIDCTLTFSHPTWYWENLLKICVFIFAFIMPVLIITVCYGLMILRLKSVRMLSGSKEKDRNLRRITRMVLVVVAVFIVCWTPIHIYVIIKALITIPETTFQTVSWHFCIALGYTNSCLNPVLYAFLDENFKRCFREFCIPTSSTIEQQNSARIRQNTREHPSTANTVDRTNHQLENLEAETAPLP
Text: as §1, §2

[1] = Pharmacokinetics and brain distribution after single intraperitoneal dose in male C57BL/6 mice; settings: for MRT last: MRTlast
Method: For each compound, a group of twenty-four male mice were administered with a solution formulation of the drug in normal saline intraperitoneally at a dose of 10 mg/kg. Blood samples (approximately 60 μL) were collected under light isoflurane anesthesia from the retro orbital plexus at 0.08, 0.25, 0.5, 1, 2, 4, 8 and 24 hr. Plasma samples were separated by centrifugation of whole blood and stored below −70° C. until bioanalysis. Immediately after collection of blood, brain samples were collected from each mouse at 0.08, 0.25, 0.5, 1, 2, 4, 8 and 24 hr. Brain samples were homogenized using ice-cold phosphate buffer saline (pH 7.4) and homogenates were stored below −70° C. until analysis. Total homogenate volume was three times the tissue weight. All samples were processed for analysis by protein precipitation using acetonitrile (ACN) and analyzed with fit-for-purpose LC/MS/MS method (LLOQ—1.01 ng/mL in plasma and brain). Pharmacokinetic parameters were calculated using the non-compartmental analysis tool of Phoenix WinNonlin® (Version 6.3).

[2] = brain, i.p. 10 mg/kg, male C57BL/6 mice
[3] = i.p. 10 mg/kg, male C57BL/6 mice
[4] = male, C57BL/6, mouse, in vivo, ip, 10 mg/kg
[5] = male, C57BL/6, mouse, in vivo, ip, 10 mg/kg, brain, i.p. 10 mg/kg, male C57BL/6 mice
[6] = male, C57BL/6, mouse, in vivo, ip, 10 mg/kg, plasma, i.p. 10 mg/kg, male C57BL/6 mice

Row | Structure (SMILES) | EC50 (Human MOR) | EC50 (Mouse MOR) | further results
1 | CCCCCNC1c2ccccc2N(C)S(=O)(=O)c2ccccc21 (centres unmarked) [compound 8, 6-Methyl-11-(pentylamino)-6,11-dihydrodibenzo[c,f][1,2]thiazepine 5,5-dioxide] | < 10 µM | < 10 µM | 
2 | CCOC(=O)CCCCNC1c2ccccc2N(C)S(=O)(=O)c2cc(Cl)ccc21 (centres unmarked) [compound 17, Ethyl 5-((3-chloro-6-methyl-5,5-dioxido-6,11-dihydrodibenzo[c,f][1,2]thiazepin-11-yl)amino)pentanoate] | < 10 µM | < 10 µM | 
3 | CN1c2ccccc2C(NCCCCC(=O)O)c2ccc(Cl)cc2S1(=O)=O (centres unmarked) [compound 18, 5-((3-Chloro-6-methyl-5,5-dioxido-6,11-dihydrodibenzo[c,f][1,2]thiazepin-11-yl)amino)pentanoic acid] | < 10 µM | < 10 µM | 
4 | CCCCCNC1c2ccccc2N(C)S(=O)(=O)c2cc(Cl)ccc21 (centres unmarked) [compound 19, 3-Chloro-6-methyl-11-(pentylamino)-6,11-dihydrodibenzo [c,f][1,2]thiazepine 5,5-dioxide] | < 10 µM | < 10 µM | 
5 | CNC1c2ccccc2N(C)S(=O)(=O)c2cc(Cl)ccc21 (centres unmarked) [compound 20, 3-Chloro-6-methyl-11-(methylamino)-6,11-dihydrodibenzo [c,f][1,2]thiazepine 5,5-dioxide] | < 10 µM | < 10 µM | 
6 | CCCNC1c2ccccc2N(C)S(=O)(=O)c2cc(Cl)ccc21 (centres unmarked) [compound 21, 3-Chloro-6-methyl-11-(propylamino)-6,11-dihydrodibenzo [c,f][1,2]thiazepine 5,5-dioxide] | < 10 µM | < 10 µM | 
7 | CC(C)NC1c2ccccc2N(C)S(=O)(=O)c2cc(Cl)ccc21 (centres unmarked) [compound 22, 3-Chloro-11-(isopropylamino)-6-methyl-6,11-dihydrodibenzo [c,f][1,2]thiazepine 5,5-dioxide] | < 10 µM | < 10 µM | 
8 | COCCCNC1c2ccccc2N(C)S(=O)(=O)c2cc(Cl)ccc21 (centres unmarked) [compound 23, 3-Chloro-11-((3-methoxypropyl)amino)-6-methyl-6,11-dihydrodibenzo [c,f][1,2]thiazepine 5,5-dioxide] |  |  | AUClast [1, 2]: 335.03 ng·h/g; CL [1, 2]: 260.44 mL/min/kg; half-life compared with tianeptine [1, 3]: much longer half-life; systemic exposure (AUC) compared with tianeptine [1, 3]: higher systemic exposure (AUC); AUC(0-t) [1, 4]: 3060 ng·h/mL; Cmax [1, 4]: 1540 ng/mL and 378 ng/g; MRT last [1, 5]: 1.27 h; MRT last [1, 6]: 2.29 h; half-life ([1]; male, C57BL/6, mouse, in vivo, ip, 10 mg/kg, T1/2, brain, i.p. 10 mg/kg, male C57BL/6 mice): 5.12 h; half-life ([1]; male, C57BL/6, mouse, in vivo, ip, 10 mg/kg, T1/2, plasma, i.p. 10 mg/kg, male C57BL/6 mice): 3.93 h; Tmax [1, 5]: 0.08 h; Tmax [1, 6]: 0.25 h; CL ([1]; plasma, i.p. 10 mg/kg, male C57BL/6 mice): 44.27 mL/min/kg
9 | COCCCNC1c2ccccc2N(C)S(=O)(=O)c2cc(SC)ccc21 (centres unmarked) [compound 44, 11-((3-Methoxypropyl)amino)-6-methyl-3-(methylthio)-6,11-dihydrodibenzo[c,f][1,2]thiazepine 5,5-dioxide] | < 10 µM | < 10 µM | 
